The text below walks through data of paper PMC2408655 (Journal of Neurochemistry, 2008).

Where two headings read alike, the source gives them in different places.

Assay [1] deals with Aβ fibrils. The note with it: read-out: Kd and Ki values, Aβ, in vitro generated Aβ fibrils, cited from earlier work.
For assay [2], the target named is T1, α-synuclein (AS) filaments (Homo sapiens, UniProt P37840). As to the kind of experiment: Radioligand competition assay of α-synuclein. The format is binding. The note with it: for displacement of the radioligand from the AS filaments: [3H]-Me-BTA1 radioligand, Fig. 3b. In general terms: Loss of bound radioactivity is the signal in a displacement assay; it reports binding, not function.

Assay [3] deals with T1, α-synuclein (AS) filaments. The assay can be described thus: Radioligand binding assay of α-synuclein.

As to `CN(C)c1ccc(-c2cc3cc(Br)ccc3o2)cc1` [BF1, 5-bromo-2-(4-dimethylaminophenyl)benzofuran], the Ki (in general, the dissociation constant of the complex between target and ligand, obtained from inhibition or displacement) in assay [1] (ref Lockhart et al. 2005) was 3 nM. In assay [2], the “displacement of the radioligand from the AS filaments” value was “dose-dependent displacement”.
`CNc1ccc(-c2nc3ccc(C)cc3s2)cc1` [Me-BTA1, 2-[4′-(methylamino)phenyl]-6-methylbenzothiazole]: the Kd (as a rule, the constant that tells how readily two partners part at equilibrium) in assay [1] (ref Lockhart et al. 2005) is 4.2 nM.
Take `CNc1ccc(-c2nc3ccc(O)cc3s2)cc1` [PIB, 2-[4′-(methylamino)phenyl]-6-hydroxybenzothiazole]: the Kd in assay [3] was 4.16 nM. The Ki in assay [1] (ref Ye et al. 2005) was 25 nM. Moreover, the “fold weaker binding than BF1” value in assay [2] (Ki relative to BF1) is on record as “around fourfold weaker”. The “displacement of the radioligand from the AS filaments” value in assay [2] is recorded as “dose-dependent displacement”.
